From publication PMC10053286, “The Importance of Epigallocatechin as a Scaffold for Drug Development against Flaviviruses” (Pharmaceutics, 2023)
Where two headings read alike, the source gives them in different places.

Tests used:
ZIKV NS2B/NS3pro [1] = molecular target: T1, ZIKV NS2B/NS3pro (Zika virus, UniProt A0A024B7W1); test: biochemical
WNV NS2B/NS3pro [2] = molecular target: T2, WNV NS2B/NS3pro (West Nile virus, UniProt P06935); test: biochemical; format: biochemical
YFV NS2B/NS3pro [3] = molecular target: T3, YFV NS2B/NS3pro (Yellow fever virus, UniProt Q1X881); test: biochemical
ZIKV NS2B/NS3pro [4] = molecular target: T1, ZIKV NS2B/NS3pro; test: Surface plasmon resonance dissociation constant; format: binding
YFV NS2B/NS3pro [5] = molecular target: T3, YFV NS2B/NS3pro; test: biochemical; format: binding
YFV NS2B/NS3pro [6] = molecular target: T3, YFV NS2B/NS3pro; format: binding
ZIKV NS2B/NS3pro [7] = molecular target: T1, ZIKV NS2B/NS3pro; format: binding
WNV NS2B/NS3pro [8] = molecular target: T2, WNV NS2B/NS3pro; test: Surface plasmon resonance dissociation constant; format: binding
DENV2 NS2B/NS3pro [9] = molecular target: T4, DENV2 NS2B/NS3pro (Dengue virus type 2, UniProt P14340); format: binding
DENV2 NS2B/NS3pro [10] = molecular target: T4, DENV2 NS2B/NS3pro; test: Surface plasmon resonance dissociation constant; format: binding
DENV2 NS2B/NS3pro [11] = molecular target: T4, DENV2 NS2B/NS3pro; test: biochemical
ZIKV NS2B/NS3pro [12] = molecular target: T1, ZIKV NS2B/NS3pro; details: Li and collaborators; cited from earlier work

T1 sequence (A0A024B7W1 1421-1467): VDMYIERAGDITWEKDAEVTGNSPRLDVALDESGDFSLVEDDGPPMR
T1 sequence (A0A024B7W1 1503-1672): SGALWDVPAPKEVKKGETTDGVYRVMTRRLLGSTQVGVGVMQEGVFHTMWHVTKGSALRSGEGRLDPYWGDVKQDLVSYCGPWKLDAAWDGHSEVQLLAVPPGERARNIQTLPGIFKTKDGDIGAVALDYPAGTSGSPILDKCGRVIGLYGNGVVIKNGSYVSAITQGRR
T2 sequence (P06935 1420-1465): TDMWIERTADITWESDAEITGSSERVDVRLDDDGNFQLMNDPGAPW
T2 sequence (P06935 1502-1671): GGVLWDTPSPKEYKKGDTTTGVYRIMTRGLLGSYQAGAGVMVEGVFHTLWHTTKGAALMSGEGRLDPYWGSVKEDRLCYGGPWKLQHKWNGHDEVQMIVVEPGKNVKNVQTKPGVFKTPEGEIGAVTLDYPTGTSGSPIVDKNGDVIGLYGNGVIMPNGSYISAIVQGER
T4 sequence (P14340 1394-1440 limits assumed): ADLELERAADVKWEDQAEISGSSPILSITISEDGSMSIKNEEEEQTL
T4 sequence (P14340 1476-1660 limits assumed): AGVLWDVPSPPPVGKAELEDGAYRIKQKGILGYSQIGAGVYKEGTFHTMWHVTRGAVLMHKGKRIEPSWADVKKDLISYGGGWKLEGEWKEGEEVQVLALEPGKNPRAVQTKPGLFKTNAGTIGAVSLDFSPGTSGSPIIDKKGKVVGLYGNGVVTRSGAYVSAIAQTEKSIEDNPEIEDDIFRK
T3 sequence (Q1X881 1402-1449 limits assumed): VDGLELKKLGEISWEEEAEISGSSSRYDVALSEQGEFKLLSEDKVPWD
T3 sequence (Q1X881 1491-1660 limits assumed): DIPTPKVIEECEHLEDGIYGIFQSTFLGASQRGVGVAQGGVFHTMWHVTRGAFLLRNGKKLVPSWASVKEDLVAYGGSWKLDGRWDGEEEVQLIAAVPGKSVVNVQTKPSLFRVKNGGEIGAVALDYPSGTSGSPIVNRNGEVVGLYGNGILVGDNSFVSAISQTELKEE

Row | Compound | IC50 (ZIKV NS2B/NS3pro [1]) [µM] | Inhibition Mode (ZIKV NS2B/NS3pro [1]) | IC50 (WNV NS2B/NS3pro [2]) [µM] | Inhibition Mode (WNV NS2B/NS3pro [2]) | IC50 (YFV NS2B/NS3pro [3]) [µM] | Inhibition Mode (YFV NS2B/NS3pro [3]) | Kd (ZIKV NS2B/NS3pro [4]) [µM] | Kd (YFV NS2B/NS3pro [5]) [µM] | Trp emission band after titration of the molecule (excitation shift) (YFV NS2B/NS3pro [6]) | Trp emission band after titration of the molecule (excitation shift) (ZIKV NS2B/NS3pro [7]) | Kd (WNV NS2B/NS3pro [8]) [µM] | Trp emission band after titration of the molecule (excitation shift) (DENV2 NS2B/NS3pro [9]) | Kd (DENV2 NS2B/NS3pro [10]) [µM] | IC50 (DENV2 NS2B/NS3pro [11]) [µM] | Inhibition Mode (DENV2 NS2B/NS3pro [11]) | IC50 (ZIKV NS2B/NS3pro [12]) [µM]
1 | CC(=O)Oc1cc(OC(C)=O)c2c(c1)O[C@H](c1cc(OC(C)=O)c(OC(C)=O)c(OC(C)=O)c1)[C@H](OC(=O)c1cc(OC(C)=O)c(OC(C)=O)c(OC(C)=O)c1)C2 [AcEGCG, EGCG octaacetate] | 102 ± 2.6 | Noncompetitive | 83.4 ± 10.4 | Noncompetitive | 39.1 ± 2.2 | Noncompetitive | 4.8 | 0.47 | 360 nm | 360 nm | 0.98 | 360 nm | 2.4 | 39.8 ± 2.5 | Noncompetitive | 
2 | O=C(O[C@@H]1Cc2c(O)cc(O)cc2O[C@@H]1c1ccc(O)c(O)c1)c1cc(O)c(O)c(O)c1 [ECG, epicatechin gallate] |  |  |  |  |  |  |  |  |  |  |  |  |  |  |  | 89
3 | Oc1cc(O)c2c(c1)O[C@H](c1cc(O)c(O)c(O)c1)[C@H](O)C2 [EGC, epigallocatechin] | 8.9 ± 1.2 | Competitive | 17.3 ± 2.5 | Competitive | 19 ± 1.9 | Competitive | 0.02 | 0.27 | no excitation shift | no excitation shift | 0.22 | no excitation shift | 0.03 | 145 ± 3 | Competitive | 
4 | O=C(O[C@@H]1Cc2c(O)cc(O)cc2O[C@@H]1c1cc(O)c(O)c(O)c1)c1cc(O)c(O)c(O)c1 [EGCG, Epigallocatechin gallate] | 4.5 ± 0.6 | Noncompetitive |  | Noncompetitive | 8 ± 1.4 | Noncompetitive | 0.09 | 0.06 |  |  |  |  | 0.07 | 6.3 ± 1 | Noncompetitive | 
